This passage reports EC50 and Activity results from ChEMBL document CHEMBL3992545, “Discovery and dimeric approach of novel Natriuretic Peptide Receptor A (NPR-A) agonists” (Bioorg Med Chem, 2017).

Calls of active or inactive are those of the source. The rule behind the calls is not given here.

Usually EC50 stands for the concentration that produces a half-maximal response.

The target in assay [1] is T1, Atrial natriuretic peptide receptor 1 (Homo sapiens, UniProt P16066).
T1 sequence (P16066 whole entry): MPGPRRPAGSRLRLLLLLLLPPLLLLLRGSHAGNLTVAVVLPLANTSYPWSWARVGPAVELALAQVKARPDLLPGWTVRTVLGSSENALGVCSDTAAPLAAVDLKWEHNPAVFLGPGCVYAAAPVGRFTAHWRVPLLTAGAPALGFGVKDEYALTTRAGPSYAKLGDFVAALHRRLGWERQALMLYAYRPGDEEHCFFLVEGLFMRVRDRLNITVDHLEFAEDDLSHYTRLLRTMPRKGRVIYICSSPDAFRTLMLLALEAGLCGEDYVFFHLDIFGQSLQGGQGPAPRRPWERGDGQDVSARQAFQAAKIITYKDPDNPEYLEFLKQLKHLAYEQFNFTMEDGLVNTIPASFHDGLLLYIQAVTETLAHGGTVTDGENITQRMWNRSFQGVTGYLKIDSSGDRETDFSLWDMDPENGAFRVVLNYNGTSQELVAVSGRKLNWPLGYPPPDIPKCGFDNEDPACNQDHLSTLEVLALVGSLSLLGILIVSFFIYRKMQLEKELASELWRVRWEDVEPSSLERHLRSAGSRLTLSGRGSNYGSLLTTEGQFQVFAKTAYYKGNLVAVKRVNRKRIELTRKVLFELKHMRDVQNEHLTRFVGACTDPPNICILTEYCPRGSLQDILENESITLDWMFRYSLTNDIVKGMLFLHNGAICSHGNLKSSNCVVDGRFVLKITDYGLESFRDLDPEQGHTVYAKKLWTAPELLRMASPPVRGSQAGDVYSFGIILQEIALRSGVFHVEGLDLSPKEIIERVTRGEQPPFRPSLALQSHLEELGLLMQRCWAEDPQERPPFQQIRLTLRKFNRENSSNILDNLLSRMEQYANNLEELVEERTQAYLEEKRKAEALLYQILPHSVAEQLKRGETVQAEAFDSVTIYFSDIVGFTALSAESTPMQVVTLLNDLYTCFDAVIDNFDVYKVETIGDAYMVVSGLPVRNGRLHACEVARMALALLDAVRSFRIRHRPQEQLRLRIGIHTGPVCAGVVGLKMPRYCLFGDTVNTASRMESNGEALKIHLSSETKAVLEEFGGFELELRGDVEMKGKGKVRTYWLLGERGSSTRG
As to the kind of experiment: Agonist activity at human NPR-A expressed in CHO cells assessed as increase in cGMP accumulation after 30 mins by radioimmunoassay. Format: cell-based.

The target of assay [2] is T2, Atrial natriuretic peptide receptor 1 (Rattus norvegicus, UniProt P18910).
T2 sequence (P18910 whole entry): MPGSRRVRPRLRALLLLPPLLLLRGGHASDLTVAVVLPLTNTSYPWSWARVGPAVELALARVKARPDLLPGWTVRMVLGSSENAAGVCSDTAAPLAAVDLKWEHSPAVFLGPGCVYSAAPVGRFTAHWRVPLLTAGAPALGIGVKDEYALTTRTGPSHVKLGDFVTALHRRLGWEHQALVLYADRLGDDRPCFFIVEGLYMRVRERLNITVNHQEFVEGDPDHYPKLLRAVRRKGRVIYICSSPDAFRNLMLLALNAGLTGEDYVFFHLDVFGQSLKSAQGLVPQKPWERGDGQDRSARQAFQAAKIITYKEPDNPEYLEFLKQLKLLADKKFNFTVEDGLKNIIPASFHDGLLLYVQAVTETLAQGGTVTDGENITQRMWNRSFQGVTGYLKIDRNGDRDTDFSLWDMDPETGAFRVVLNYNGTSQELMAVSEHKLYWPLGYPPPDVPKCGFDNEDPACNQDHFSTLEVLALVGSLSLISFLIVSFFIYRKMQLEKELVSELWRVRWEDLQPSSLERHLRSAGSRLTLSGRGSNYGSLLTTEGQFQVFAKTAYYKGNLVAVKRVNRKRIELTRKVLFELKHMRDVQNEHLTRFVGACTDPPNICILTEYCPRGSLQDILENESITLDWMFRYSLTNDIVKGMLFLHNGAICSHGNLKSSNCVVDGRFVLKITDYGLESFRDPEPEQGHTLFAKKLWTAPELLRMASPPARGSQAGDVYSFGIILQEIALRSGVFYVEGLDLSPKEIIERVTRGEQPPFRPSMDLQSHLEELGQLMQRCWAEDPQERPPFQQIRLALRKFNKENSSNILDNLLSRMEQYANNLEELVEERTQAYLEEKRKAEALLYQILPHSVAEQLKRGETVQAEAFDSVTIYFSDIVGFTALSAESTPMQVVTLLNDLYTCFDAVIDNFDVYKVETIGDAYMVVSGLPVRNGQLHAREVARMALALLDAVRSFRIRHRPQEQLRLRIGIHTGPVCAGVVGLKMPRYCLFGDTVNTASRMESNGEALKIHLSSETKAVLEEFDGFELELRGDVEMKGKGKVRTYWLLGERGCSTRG
The assay is described as follows: Agonist activity at rat NPR-A expressed in CHO cells assessed as increase in cGMP accumulation after 15 mins by fluorescent assay. Format: cell-based.

Assay [3] has as its system Rattus norvegicus. The assay is described as follows: In vivo agonist activity at NPR-A in iv dosed Crl:CD(SD) rat assessed as increase in cGMP accumulation in kidney administered as infusion over 30 mins by radioimmunoassay. Format: functional, organism-based.
Assay [4] concerns Rattus norvegicus. As to the kind of experiment: In vivo agonist activity at NPR-A in Crl:CD(SD) rat assessed as increase in cGMP accumulation in lung at 30 ug/kg/min, iv. Format: functional, organism-based.
Assay [5] relates to Rattus norvegicus. As to the kind of experiment: Diuretic activity in iv dosed Crl:CD(SD) rat assessed as increase in urine volume administered as bolus dose measured up to 60 mins. Format: functional, organism-based.
Assay [6] deals with Rattus norvegicus. The assay is described as follows: In vivo agonist activity at NPR-A in Crl:CD(SD) rat assessed as increase in cGMP accumulation in kidney at 1 ug/kg/min, iv administered as infusion over 30 mins by radioimmunoassay. Format: functional, organism-based.
The subject of assay [7] is Rattus norvegicus. The assay is described as follows: Diuretic activity in Crl:CD(SD) rat assessed as increase in urine volume at 10 ug/kg, iv administered as bolus dose measured up to 60 mins. Format: functional, organism-based.

On to `CCCCC1C(=O)N=C(N)N1c1nc(NC(=N)N)nc(Nc2ccc(Nc3nc(NC(=N)N)nc(N4C(N)=NC(=O)C4CCCC)n3)cc2)n1` (configuration not stated), for which the EC50 was found to be 2 nM in assay [1] and 23 nM in assay [2]. In addition, the Activity result in assay [3] and in assay [5] was “Dose-dependent effect” in each case. Moreover, in assay [4], the result was Active.

Take `CC[C@H](C)[C@@H]1NC(=O)[C@H](CCCNC(=N)N)NC(=O)[C@H](CC(=O)O)NC(=O)[C@H](CCSC)NC(=O)[C@H](CCCNC(=N)N)NC(=O)CNC(=O)CNC(=O)[C@H](Cc2ccccc2)NC(=O)[C@@H](NC(=O)[C@H](CO)NC(=O)[C@H](CO)NC(=O)[C@H](CCCNC(=N)N)NC(=O)[C@H](CCCNC(=N)N)NC(=O)[C@H](CC(C)C)NC(=O)[C@@H](N)CO)CSSC[C@@H](C(=O)N[C@@H](CC(N)=O)C(=O)N[C@@H](CO)C(=O)N[C@@H](Cc2ccccc2)C(=O)N[C@@H](CCCNC(=N)N)C(=O)N[C@@H](Cc2ccc(O)cc2)C(=O)O)NC(=O)CNC(=O)[C@H](CC(C)C)NC(=O)CNC(=O)[C@H](CO)NC(=O)[C@H](CCC(N)=O)NC(=O)[C@H](C)NC(=O)CNC1=O`: the result in assay [6] and in assay [7] was Active.

`CC1C(=O)N=C(N)N1c1nc(NC(=N)N)nc(Nc2ccc(Nc3nc(NC(=N)N)nc(N4C(N)=NC(=O)C4C)n3)cc2)n1` (configuration not stated): the concentration giving a half-maximal response (EC50) in assay [1] is more than 10000 nM.

As for `C/N=C(\N(C)C)N(C)c1nc(Nc2ccccc2)nc(N2C(N)=NC(=O)C2CC(C)C)n1` (configuration not stated), the EC50 in assay [1] is 64000 nM.

As to `CC(C)CC1C(=O)N=C(N)N1c1nc(NC(=N)N)nc(Nc2ccccc2)n1` (configuration not stated), the EC50 in assay [1] came to 4000 nM.

For the molecule `CC(C)CC1C(=O)N=C(N)N1c1nc(NC(=N)N)nc(Nc2ccc(Nc3nc(NC(=N)N)nc(N4C(N)=NC(=O)C4C)n3)cc2)n1` (configuration not stated), the concentration giving a half-maximal response (EC50) in assay [1] is 19 nM.

In the case of `CC(C)CC1C(=O)N=C(N)N1c1nc(NC(=N)N)nc(Nc2ccc(Nc3nc(NC(=N)N)nc(N4C(N)=NC(=O)C4CC(C)C)n3)cc2)n1` (configuration not stated), the concentration giving a half-maximal response (EC50) in assay [1] was found to be 5.8 nM.

In the case of `CC(C)CC1C(=O)N=C(N)N1c1nc(NC(=N)N)nc(NC2CCC(Nc3nc(NC(=N)N)nc(N4C(N)=NC(=O)C4CC(C)C)n3)CC2)n1` (configuration not stated), the EC50 is 8.1 nM in assay [1] and 76 nM in assay [2]. Moreover, the Activity entry in assay [3] and in assay [5] was “Dose-dependent effect” throughout. In addition, in assay [4], the outcome was Active.
